This is an account of results in patent US20230091225A1, “Bifunctional chimeric heterocyclic compounds for targeted degradation of androgen receptors and use thereof” (HINOVA PHARMACEUTICALS INC., priority 2019, published 2023).

In general, pIC50 refers to the negative decadic logarithm of the IC50, by convention in mol/L.

One assay addresses T1, androgen receptor (AR) (Homo sapiens, UniProt P10275).
T1 sequence (P10275 1-920): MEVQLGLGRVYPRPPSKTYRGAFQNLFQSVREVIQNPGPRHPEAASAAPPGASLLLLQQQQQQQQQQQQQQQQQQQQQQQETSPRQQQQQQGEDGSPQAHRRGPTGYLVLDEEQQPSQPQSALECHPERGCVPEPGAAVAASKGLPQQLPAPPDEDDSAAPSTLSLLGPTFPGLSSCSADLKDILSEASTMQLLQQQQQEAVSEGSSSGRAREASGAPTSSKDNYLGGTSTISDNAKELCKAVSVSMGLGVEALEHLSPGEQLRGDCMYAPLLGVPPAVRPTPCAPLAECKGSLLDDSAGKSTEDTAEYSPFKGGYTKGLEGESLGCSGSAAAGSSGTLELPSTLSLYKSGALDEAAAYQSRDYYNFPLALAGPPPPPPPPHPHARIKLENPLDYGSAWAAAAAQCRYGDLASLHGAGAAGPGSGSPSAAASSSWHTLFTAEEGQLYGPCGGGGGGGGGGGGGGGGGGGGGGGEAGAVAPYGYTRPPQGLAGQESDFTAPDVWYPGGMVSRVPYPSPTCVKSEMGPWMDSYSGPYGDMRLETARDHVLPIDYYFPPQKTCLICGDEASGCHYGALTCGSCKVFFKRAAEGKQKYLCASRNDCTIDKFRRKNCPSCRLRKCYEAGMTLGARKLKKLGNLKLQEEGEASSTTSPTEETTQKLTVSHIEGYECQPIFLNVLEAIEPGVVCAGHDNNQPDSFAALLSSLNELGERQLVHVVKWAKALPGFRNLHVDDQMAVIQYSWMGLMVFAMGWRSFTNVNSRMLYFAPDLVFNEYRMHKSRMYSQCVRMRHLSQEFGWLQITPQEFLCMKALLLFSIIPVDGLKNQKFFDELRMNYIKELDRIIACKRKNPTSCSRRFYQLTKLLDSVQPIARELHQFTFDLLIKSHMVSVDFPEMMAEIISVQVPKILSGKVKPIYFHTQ
As to the kind of experiment: Degradation of androgen receptor (AR) protein in VCaP cells by ELISA. It counts as cell-based. Conditions: for inhibition at 0.1 µM: read-out: % degradation. (An ELISA detects its analyte on a solid surface through an enzyme-linked reagent.)

In the next assay the test system is LNCaP/AR cells. As to the kind of experiment: Inhibition of proliferation of LNCaP/AR prostate cancer cells (CCK-8). It counts as cell-based.
Where [1] appears, read: percentage of degraded AR at 100 nM, VCaP cells, 16 h, ELISA.
Setting [2] is: 144 h, proliferation of LNCap/AR cells, 6 days, CCK-8, read-out: IC50.
The mark [3] stands for this setting: proliferation of LNCap/AR cells, 6 days, CCK-8, read-out: IC50.

pIC50: −log10 of the molar value. Read-outs that look alike come from different tables or passages of the source.

On to `Cc1ncsc1-c1ccc(C2(NC(=O)[C@H]3C[C@@H](O)CN3C(=O)[C@@H](NC(=O)COCCCCC#Cc3ccc(C(=O)N[C@H]4C(C)(C)[C@H](Oc5ccc(C#N)c(Br)c5)C4(C)C)cc3)C(C)(C)C)CC2)cc1` [Compound 9, (2R,4R)-1-((S)-2-(2-((6-(4-(((1R,3R)-3-(3-bromo-4-cyanophenoxy)-2,2,4,4-tetramethylcyclobutyl)carbamoyl)phenyl)hex-5-yn-1-yl)oxy)acetylamino)-3,3-dimethylbutyryl)-4-hydroxy-N-(1-(4-(4-methyl-5-yl)phenyl)cyclopropyl) pyrrolidine-2-carboxamide], for which the inhibition at 0.1 µM at androgen receptor (AR) (setting [1]) is > 80%. The pIC50 in the assay on LNCaP/AR cells (setting [2]) is > 7.00.
Regarding `CC(=O)O[C@@H]1C[C@@H](C(=O)N[C@@H](C)c2ccc(-c3scnc3C)cc2)N(C(=O)[C@@H](NC(=O)Cn2cc(C#Cc3ccc4c(c3)CN([C@H]3C(C)(C)[C@H](Oc5ccc(C#N)c(Cl)c5)C3(C)C)C4=O)cn2)C(C)(C)C)C1` [Compound 10, (3R,5S)-1-((S)-2-(2-(4-((2-((1r,3r)-3-(3-chloro-4-cyanophenoxy)-2,2,4,4-tetramethylcyclobutyl)-1-oxoisoindolin-5-ylethynyl)-1H-pyrazol-1-yl)acetylamino)-3,3-dimethylbutyryl)-5-((((S)-1-(4-(4-methylthiazol-5-yl)phenyl)ethylcarbamoyl)pyrrolidin-3-yl acetate], the “% degradation” value at androgen receptor (AR) is “C (key: A: >80%; B: 79%-50%; C: 49%-25%; D: <25%)”. Also, the pIC50 in the assay on LNCaP/AR cells (setting [3]) was 6.30 to 7.00.
As for `Cc1ncsc1-c1ccc([C@H](C)NC(=O)[C@@H]2C[C@@H](O)CN2C(=O)[C@@H](NC(=O)Cn2cc(C#Cc3ccc4c(c3)CN(C3C(C)(C)C(Oc5ccc(C#N)c(Cl)c5)C3(C)C)C4=O)cn2)C(C)(C)C)cc1` (stereo partly shown) [Compound 11], the “% degradation” value at androgen receptor (AR) (setting [1]) was “B (79%-50%)”. Besides, the pIC50 in the assay on LNCaP/AR cells (setting [3]) was > 7.00.
With `CC(=O)O[C@@H]1C[C@@H](C(=O)N[C@@H](C)c2ccc(-c3scnc3C)cc2)N(C(=O)[C@@H](NC(=O)COCCOCC#Cc2ccc3c(c2)CN([C@H]2C(C)(C)[C@H](Oc4ccc(C#N)c(Cl)c4)C2(C)C)C3=O)C(C)(C)C)C1` [Compound 12, (3R,5S)-1-((S)-2-(2-(2-((3-(2-((1r,3r)-3-(3-chloro-4-cyanophenoxy)-2,2,4,4-tetramethylcyclobutyl)-1-oxoisoindolin-5-yl)prop-2-yn-1-yl)oxy)propoxy)acetylamino)-3,3-dimethylbutyryl)-5-((((S)-1-acetic acid (4-(4-methylthiazol-5-yl)phenyl)ethyl)carbamoyl)pyrrolidin-3-yl acetate], at androgen receptor (AR) (setting [1]), the inhibition at 0.1 µM was 50 to 79%. In the assay on LNCaP/AR cells (LNCaP/AR, 144 h), the pIC50 was > 7.00.
For `Cc1ncsc1-c1ccc([C@H](C)NC(=O)[C@@H]2C[C@@H](O)CN2C(=O)[C@@H](NC(=O)COCCOCC#Cc2ccc3c(c2)CN([C@H]2C(C)(C)[C@H](Oc4ccc(C#N)c(Cl)c4)C2(C)C)C3=O)C(C)(C)C)cc1` [Compound 13], at androgen receptor (AR) (setting [1]), the “% degradation” value is listed as “B (79%-50%)”. The pIC50 in the assay with LNCaP/AR cells (setting [3]) was > 7.00.
Regarding `CC(=O)O[C@@H]1C[C@@H](C(=O)N[C@@H](C)c2ccc(-c3scnc3C)cc2)N(C(=O)[C@@H](NC(=O)COCC(C)OCC#Cc2ccc3c(c2)CN([C@H]2C(C)(C)[C@H](Oc4ccc(C#N)c(Cl)c4)C2(C)C)C3=O)C(C)(C)C)C1` (stereo partly drawn) [Compound 14, (3R,5S)-1-((2S)-2-(2-(2-((3-(2-((1r,3r)-3-(3-chloro-4-cyanophenoxy)-2,2,4,4-tetramethylcyclobutyl)-1-oxoisoindol-5-yl)prop-2-yn-1-yl)oxy)propoxy)acetylamino)-3,3-dimethylbutyryl)-5-((((S)-1-acetic acid (4-(4-methylthiazol-5-yl)phenyl)ethyl)carbamoyl)pyrrolidin-3-yl acetate], on androgen receptor (AR) (setting [1]), the inhibition at 0.1 µM lay within 50 to 79%. Besides, in the assay with LNCaP/AR cells (LNCaP/AR, 144 h), the pIC50 is > 7.00.
Regarding `Cc1ncsc1-c1ccc([C@H](C)NC(=O)[C@@H]2C[C@@H](O)CN2C(=O)[C@@H](NC(=O)COCC(C)OCC#Cc2ccc3c(c2)CN([C@H]2C(C)(C)[C@H](Oc4ccc(C#N)c(Cl)c4)C2(C)C)C3=O)C(C)(C)C)cc1` (stereo partly shown) [Compound 15], the inhibition at 0.1 µM at androgen receptor (AR) (setting [1]) lay within 25 to 49%. In addition, in the assay with LNCaP/AR cells (setting [2]), the pIC50 was > 7.00.
As for `CC(=O)O[C@@H]1C[C@@H](C(=O)N[C@@H](C)c2ccc(-c3scnc3C)cc2)N(C(=O)[C@@H](NC(=O)CN2CCC(CN3CCN(c4ccc(C(=O)NC5C[C@@]6(C)O[C@]5(C)[C@@H]5C(=O)N(c7ccc(C#N)c(Cl)c7)C(=O)[C@@H]56)cn4)CC3)CC2)C(C)(C)C)C1` (stereo partly drawn) [Compound 17, (3R,5S)-1-((2S)-2-(2-(4-((4-(5-(((3aR,4R,7R,7aS)-2-(3-chloro-4-benzonitrile)-4,7-dimethyl-1,3-dioxooctahydro-1H-4,7-epoxyisoindolin-5-yl)carbamoyl) (pyridin-2-yl)piperazin-1-yl)methyl)piperidin-1-yl)acetylamino)-3,3-dimethylbutyryl)-5-(((S)-1-(4-(4-methylthiazol-5-yl)phenyl)ethyl)carbamoyl)pyrrolidin-3-yl acetate], the inhibition at 0.1 µM on androgen receptor (AR) (VCaP, 16 h) is 50 to 79%. Also, in the assay on LNCaP/AR cells (LNCaP/AR, 144 h), the pIC50 is > 7.00.
For the compound `Cc1ncsc1-c1ccc([C@H](C)NC(=O)[C@@H]2C[C@@H](O)CN2C(=O)[C@@H](NC(=O)CN2CCC(CN3CCN(c4ccc(C(=O)NC5CC6(C)OC5(C)[C@@H]5C(=O)N(c7ccc(C#N)c(Cl)c7)C(=O)[C@@H]56)cn4)CC3)CC2)C(C)(C)C)cc1` (stereo partly drawn) [Compound 18, N-((3aR,4R,7R,7aS)-2-(3-chloro-4-benzonitrile)-4,7-dimethyl-1,3dioxooctahydro-1H-4,7-epoxyisoindolin-5-yl)-6-(4-((1-(2-(((S)-1-((2S,4R)-4-hydroxy-2-(((S)-1-(4-(4-methylthiazol-5-yl)phenyl)ethyl)carbamoyl)pyrrolidin-1-yl)-3,3-dimethyl-1-oxobutan-2-yl)amino)-2-oxoethyl)piperidine-4-yl)methyl)piperazin-1-yl)nicotinamide], the inhibition at 0.1 µM at androgen receptor (AR) (VCaP, 16 h) was > 80%. In addition, the pIC50 in the assay on LNCaP/AR cells (LNCaP/AR, 144 h) is > 7.00.
On the same counts, the results for `CC(=O)O[C@@H]1C[C@H](C(=O)N[C@H](C)c2ccc(-c3scnc3C)cc2)N(C(=O)[C@H](NC(=O)COCCCCCNc2ccc(C(=O)NC3C[C@]4(C)O[C@@]3(C)[C@@H]3C(=O)N(c5ccc(C#N)c(Cl)c5)C(=O)[C@@H]34)c(F)c2)C(C)(C)C)C1` (stereo partly drawn) [Compound 19, (3S,5R)-1-((2R)-2-(2-((5-((4-(((3aS,4S,7S,7aR)-2-(3-chloro-4-benzonitrile)4,7-dimethyl-1,3-dioxooctahydro-1H-4,7-epoxyisoindolin-5-yl)carbamoyl)-3-fluorophenyl)amino)pentyl)oxy)acetylamino)-3,3-dimethylbutyryl)-5-(((R)-1-(4-(4-methylthiazol-5-yl)phenyl)ethyl)carbamoyl)pyrrolidin-3-yl acetate] are < 25% and > 7.00.
On the same counts, the results for `Cc1ncsc1-c1ccc([C@@H](C)NC(=O)[C@H]2C[C@@H](O)CN2C(=O)[C@H](NC(=O)COCCCCCNc2ccc(C(=O)NC3C[C@]4(C)O[C@@]3(C)[C@@H]3C(=O)N(c5ccc(C#N)c(Cl)c5)C(=O)[C@@H]34)c(F)c2)C(C)(C)C)cc1` (stereo partly drawn) [Compound 20, (2R,4S)-1-((2R)-2-(2-((5-((4-(((3aS,4S,7S,7aR)-2-(3-chloro-4-benzonitrile)-4,7-dimethyl-1,3-dioxooctahydro-1H-4,7-epoxyisoindolin-5-yl)carbamoyl)-3-fluorophenyl)amino)pentyl)oxy)acetylamino)-3,3-dimethylbutyryl)-4-hydroxy-N-((R)-1-(4-(4-methylthiazol-5-yl)phenyl)ethyl)pyrrolidine-2-carboxamide] are 25 to 49% and > 7.00.
